Measurements: patent US8236729B2, “Herbicidal compositions” (Bayer Cropscience AG, priority 2004, dated 2012)

Tested on: Lolium multiflorum
Assay: Outdoor trial, post-emergence herbicidal action (Example 5.2)
Assay type: in vivo
Conditions: 1080 g of AS/ha, application at the 2-5-leaf stage (post-emergence), evaluation 55 days after treatment
Procedure: The herbicidal efficacy of the active compounds or active compound mixtures was scored visually by comparing the treated pots (soil) with untreated controls. The damage and development of all above-ground plant parts was recorded. Scoring was done on a percentage scale (100% action=all plants dead or not emerged; 50% action=50% of the plants and green plant parts dead or not emerged; 0% action=no discernible action=like control plot). The score figures of in any case 4 repetitions (pots) were averaged.
When applying the combinations according to the invention, herbicidal effects are frequently observed on a harmful plant species which exceed the formal total of the effects of the herbicides present when these are applied by themselves. Alternatively, it is observed in some cases that a lower application rate is required for the herbicide combination in order to achieve the same effect on a harmful plant species in comparison with the individual products. […] When the data observed already exceed the formal total of the data in the experiments with individual applications, they likewise exceed the expected value according to Colby, which is calculated using the formula below and is likewise regarded as an indication of synergism (cf. S. R. Colby; in Weeds 15 (1967) pp. 20 to 22): E=A+B−(A·B/100) […]

## Glyphosate-isopropylammonium [(B2.1.2.1)]
  Herbicidal action [%] against Lolium multiflorum: 18%
